System: canine cardiac myofibrillar Ca++-dependent Mg++-ATPase
Assay: Measurement of myofibrillar Ca++-dependent Mg++-ATPase activity on canine cardiac myofibrils
Format: biochemical
Conditions: 30 μM, pH 7.0, 21° C.; for max (percent change of maximal ATPase activity): pCa=5.47
Protocol: 1. Measurement of myofibrillar Ca++-dependent Mq++-ATPase activity The effect on myofibrillar Ca++sensitivity and on maximal activity of myofibrillar Ca++-dependent Mg++-ATPase was determined on canine cardiac myofibrils. (a) Contractile protein preparation Cardiac myofibrils free of membrane contaminants were prepared from left ventricular tissue of dog hearts using a modification of the method described by SOLARO et al, Biochem. Biophys. Acta, 245, 259-262, (1971). Before centrifugation, the heart homogenate was filtered through gauze. After Triton X-100 treatments, the myofibrillar fraction was washed once by resuspension and centrifugation in 10 volumes of 1 mM EGTA, […], 30 mM imidazole, 2 mM MgCl2, pH 7.0. The pellet was then washed three times in 10 volumes of the same buffer without EGTA. Before the last centrifugation, the suspension of myofibrils was filtered through a stainless steel sieve with 0.25 mm meshes. Myofibrils were kept in pellet overnight. Before use, the pellet was suspended in a small amount of buffer, the protein concentration was determined by the method of BRADFORD M., Anal. Biochem., 1976, 72, 248 and adjusted in order to have a concentration between 6 and 7 mg/ml. (b) Myofibrillar ATPase activity Ca++-dependent myfibrillar ATPase activity was determined at 21° C., pH 7.0, by measuring the rate of release of inorganic phosphate. All assays were performed within 24hrs. of final purification, using the method described by SOLARO and […]., 51. 290-4,(1982). Reaction mixtures (4 ml) containing 0.6-0.7 mg/ml myofibrillar protein, 80mM KCl, 20 mM imidazole, 3 mM MgCl2, 1 mM EGTA, the desired amount of CaCl2, and the indicated concentration of drug or appropriate vehicle were preincubated for 6 min. prior to assay. The amount of CaCl2 was varied between 0 and 0.9 mM and the pCa (-log free Ca++) computed using 2.514×10^6 M^-1 as the apparent affinity of Ca++for EGTA at pH 7.0. Reactions were initiated by the addition of Na2 ATP to final concentration of 2 mM. After an incubation period of 12 min., reactions were quenched by the addition of an equal volume of ice-cold 10% trichloroacetic acid. The protein was pelleted by centrifugation (2000 g, 15 min.) and Pi was assayed in the supernatant fraction using a modification of the method described by LANZETTA et al, Anal. Biochem., 100, 95-97, (1979). The following solutions were prepared: (1) 3.7% ammonium heptamolybdate in 0.12 N H2 SO4 (2) 0.074% malachite green oxalate in 1% polyvinylic alcohol. The colour reagent was prepared by mixing an equal volume of solution (1) and (2) 15 min. before the assay. For the assay, 1,700 μl of 1% H2 SO4 and 1 ml of colour reagent were added to 100 μl of sample. Colour development occurred at room temperature for 30 min. and was quenched by the addition of 200 μl of 1M tri-potassium citrate. The absorbance was measured at 620 millimicrons. The effect of each compound, tested at the indicated concentration, on the relation between pCa and percent activation was determined taking 100% for the maximum ATPase activity obrained with vehicle alone. The effect on Ca++sensitivity was quantified by measuring the shift of the pCa giving 50% of the maximal control ATPase activity. The effect on maximal ATPase activity was expressed as the percent change of ATPase activity for pCa=5.47. Mean effects on myofibrillar ATPase activity were obtained from 1 to 5 preparations, (compounds tested at 2×10^-4 M).

Row | Compound | max (percent change of maximal ATPase activity) | pCa (shift of the pCa giving 50% of the maximal control ATPase activity; Ca++ sensitivity)
1 | CC1SC(=O)NN=C1c1ccc2c(c1)C(=NNc1cccnc1)C(=O)N2 (stereo not shown) [Example 36, 5-(3,6-Dihydro-6-methyl-2-oxo-2H-1,3,4-thiadiazin-5-yl) -1H-indole-2,3-dione 3-(3-pyridylhydrazone)] | 24 ± 5% | +0.92 ± 0.06
2 | CC1SC(=O)NN=C1c1ccc2c(c1)C(=NNc1ccccn1)C(=O)N2.Cl (stereo not shown) [Example 35, 5-(3,6-Dihydro-6-methyl-2-oxo-2H-1,3,4-thiadiazin-5-yl)-1H-indole-2,3-dione 3-(2-pyridylhydrazone) monohydrochloride] | 0 ± 1% | +0.05 ± 0.06
3 | CC1SC(=O)NN=C1c1ccc2c(c1)C(=NNc1ccc(Cl)cc1)C(=O)N2 (stereo not shown) [Example 29, 5-(3,6-Dihydro-6-methyl-2-oxo-2H-1,3,4-thiadiazin-5-yl) -1H-indole-2,3-dione 3-[(4-chloro)phenylhydrazone]] | 25 ± 4% | +0.78 ± 0.1
4 | COc1ccc(NN=C2C(=O)Nc3ccc(C4=NNC(=O)SC4C)cc32)cc1 (stereo not shown) [Example 28, 5-(3,6-Dihydro-6-methyl-2-oxo-2H-1,3,4-thiadiazin-5-yl) -1H-indole-2,3-dione 3-[(4-methoxy)phenylhydrazone]] | 20 ± 5% | +0.94 ± 0.05
5 | CCOC(=O)CON=C1C(=O)Nc2ccc(C3=NNC(=O)SC3C)cc21 (stereo not shown) [Example 23, Ethyl[[[2,3-dihydro-5-(3,6-dihydro-6-methyl-2-oxo-2H -1,3,4-thiadiazin-5-yl)-2-oxo-1H-indol-3-ylidene]amino]oxy]lacetate] | 8 ± 6% | +0.05 ± 0.02
6 | CC1SC(=O)NN=C1c1ccc2c(c1)C(=NNc1ccc(F)cc1)C(=O)N2 (stereo not shown) [Example 30] | 28 ± 6% | +1.01 ± 0.07
7 | CC1SC(=O)NN=C1c1ccc2c(c1)C(=Cc1ccccc1[N+](=O)[O-])C(=O)N2 (stereo not shown) [Example 16, 1,3-Dihydro-5-(3,6-dihydro-6-methyl-2-oxo-2H-1,3,4-thiadiazin-5-yl)-3-(2-nitrophenylmethylene)-2H-indol-2-one] | 1 ± 4% | +0.17 ± 0.03
8 | CC1SC(=O)NN=C1c1ccc2c(c1)C(=NNc1c(F)c(F)c(F)c(F)c1F)C(=O)N2 (stereo not shown) [Example 32, 5-(3,6-Dihydro-6-methyl-2-oxo-2H-1,3,4-thiadiazin-5-yl) -1H-indole-2,3-dione 3-(pentafluorophenylhydrazone)] | -1 ± 7% | +0.10 ± 0.04
9 | CC1SC(=O)NN=C1c1ccc2c(c1)C(=NNc1ccc(C(=O)O)cc1)C(=O)N2 (stereo not shown) [Example 34] | 5 ± 2% | +0.40 ± 0.02
10 | CC1SC(=O)NN=C1c1ccc2c(c1)C(=NNc1ccc(C(C)(C)C)cc1)C(=O)N2 (stereo not shown) [Example 24, 5-(3,6-Dihydro-6-methyl-2-oxo-2H-1,3,4-thiadiazin-5-yl) -1H-indole-2,3-dione 3-[4-(1,1-dimethylethyl)phenylhydrazone]] | -2 ± 5% | +0.49 ± 0.06
11 | CC1SC(=O)NN=C1c1ccc2c(c1)C(=NN(C)c1ccccc1)C(=O)N2 (stereo not shown) [Example 26, 5-(3,6-Dihydro-6-methyl-2-oxo-2H-1,3,4-thiadiazin-5-yl) -1H-indole-2,3-dione 3-(methylphenylhydrazone)] | 17 ± 2% | +0.65 ± 0.05
12 | CC1SC(=O)NN=C1c1ccc2c(c1)C(=NNc1ccc(Cl)c(Cl)c1)C(=O)N2 (stereo not shown) [Example 27, 5-(3,6-Dihydro-6-methyl-2-oxo-2H-1,3,4-thiadiazin-5-yl) -1H-indole-2,3-dione 3-(3,4-dichloroohenyl)hydrazone] | -1 ± 0% | +0.05 ± 0.03
13 | CC#N.CC1SC(=O)NN=C1c1ccc2c(c1)C(=NNc1ccc(S(C)(=O)=O)cc1)C(=O)N2 (stereo not shown) [Example 33] | 3 ± 1% | +0.37 ± 0.05
14 | CC1SC(=O)NN=C1c1ccc2c(c1)C(=NNCc1ccccc1)C(=O)N2 (stereo not shown) [Example 22, 5-(3,6-Dihydro-6-methyl-2-oxo-2H-1,3,4-thiadiazin-5-yl) -1H-indole-2,3-dione 3-[(phenylmethyl)hydrazone]] | 21 ± 4% | +0.64 ± 0.1
15 | CC1SC(=O)NN=C1c1ccc2c(c1)C(=Cc1cccnc1)C(=O)N2 (stereo not shown) [Example 19, 1,3-Dihydro-5-(3,6-dihydro-6-methyl-2-oxo-2H-1,3,4-thiadiazin-5-yl)-3-(3-pyridylmethylene)-2H-indol-2-one] | -14 ± 7% | +0.23 ± 0.06
16 | CC1SC(=O)NN=C1c1ccc2c(c1)C(=NNC1CCCCC1)C(=O)N2 (stereo not shown) [Example 25, 5-(3,6-Dihydro-6-methyl-2-oxo-2H-1,3,4-thiadiazin-5-yl) -1H-indole-2,3-dione 3-(cyclohexylhydrazone)] | 22 ± 3% | +0.49 ± 0.06
17 | CC1SC(=O)NN=C1c1ccc2c(c1)C(=Cc1ccccn1)C(=O)N2 (stereo not shown) [Example 20, 1,3-Dihydro-5-(3,6-dihydro-6-methyl-2-oxo-2H-1,3,4-thiadiazin-5-yl)-3-(2-pyridylmethylene)-2H-indol-2-one] | -13 ± 5% | +0.19 ± 0.08
18 | CC1SC(=O)NN=C1c1ccc2c(c1)C(=NNC(=O)c1ccncc1)C(=O)N2 (stereo not shown) [Example 39] | 3 ± 2% | +0.04 ± 0.02
19 | CC1SC(=O)NN=C1c1ccc2c(c1)C(=NNC(=O)c1ccccn1)C(=O)N2 (stereo not shown) [Example 37] | -9 ± 1% | +0.14 ± 0.03
20 | COC(=O)NN=C1C(=O)Nc2ccc(C3=NNC(=O)SC3C)cc21 (stereo not shown) [Example 15, Methyl 2-[2,3-dihydro-5-(3,6-dihydro-6-methyl-2-oxo-2H -1,3,4-thiadiazin-5-yl)-2-oxo-1H-indol-3-ylidene]hydrazine carboxylate] | 2 ± 4% | +0.08 ± 0.04
